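Cells were grown in 96-well plates and exposed to each compound for 48 hours at five concentrations; endpoints were interpolated linearly between bracketing concentrations, or set to the highest concentration if not reached. At the GI50, growth is halved. TGI denotes the concentration required for complete inhibition of growth.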
Key:
Assay in all cases: NCI tumour cell line growth inhibition, 48 h
[1] = tested on: HS 578T breast
[2] = tested on: UACC-62 melanoma
[3] = tested on: OVCAR-5 ovarian
[4] = tested on: HOP-62 NSCLC
[5] = tested on: SK-MEL-5 melanoma
[6] = tested on: KM12 colon
[7] = tested on: SF-268 CNS
[8] = tested on: U251 CNS
[9] = tested on: SN12C renal
[10] = tested on: T-47D breast
[11] = tested on: NCI-H522 lung
[12] = tested on: SW-620 colon
[13] = tested on: COLO 205 colon
[14] = tested on: UO-31 renal
[15] = tested on: OVCAR-4 ovarian
[16] = tested on: CAKI-1 renal
[17] = tested on: NCI-H23 lung
[18] = tested on: SK-MEL-2 melanoma
[19] = tested on: M14 melanoma
[20] = tested on: HOP-92 NSCLC
[21] = tested on: MDA-MB-435
[22] = tested on: SR leukemia
[23] = tested on: HT29 colon
[24] = tested on: A498 renal
[25] = tested on: RXF 393 renal
[26] = tested on: BT-549 breast
[27] = tested on: SNB-19 CNS
[28] = tested on: MDA-MB-231 breast
[29] = tested on: SNB-75 CNS

COc1ccccc1/C=C/C(=O)/C=C/c1ccccc1OC was tested, and the GI50 [1] was 3.4 µM, the TGI [1] was 39.2 µM and the GI50 [2] was 1.65 µM. For the same compound, the TGI [2] was 3.41 µM, the GI50 [3] was 3.16 µM and the TGI [3] was 6.47 µM. For the same compound, the GI50 [4] was 3 µM, the TGI [4] was 6.92 µM and the GI50 [5] was 1.5 µM. It also gave a TGI [5] of 2.87 µM, a GI50 [6] of 1.57 µM and a TGI [6] of 3.39 µM. The GI50 [7] was 1.92 µM, the TGI [7] was 4.57 µM and the GI50 [8] was 1.55 µM. The TGI [8] was 3.24 µM, the GI50 [9] was 2.06 µM and the TGI [9] was 5.21 µM. The GI50 [10] was 1.47 µM, the TGI [10] was 8.4 µM and the GI50 [11] was 1.67 µM. It also gave a TGI [11] of 3.26 µM, a GI50 [12] of 1.51 µM and a TGI [12] of 3.37 µM. For the same compound, the GI50 [13] was 1.94 µM, the TGI [13] was 3.5 µM and the GI50 [14] was 1.83 µM. The TGI [14] was 3.33 µM, the GI50 [15] was 1.51 µM and the TGI [15] was 16.6 µM. It also gave a GI50 [16] of 3.16 µM, a TGI [16] of 7.94 µM and a GI50 [17] of 1.75 µM. For the same compound, the TGI [17] was 3.92 µM, the GI50 [18] was 2.29 µM and the TGI [18] was 4.95 µM. For the same compound, the GI50 [19] was 1.65 µM, the TGI [19] was 3.68 µM and the GI50 [20] was 2.1 µM. It also gave a TGI [20] of 5.04 µM, a GI50 [21] of 2.04 µM and a TGI [21] of 5.61 µM. For the same compound, the GI50 [22] was 1.18 µM, the TGI [22] was 8.22 µM and the GI50 [23] was 2.24 µM. The TGI [23] was 5.04 µM, the GI50 [24] was 1.54 µM and the TGI [24] was 3.06 µM. The GI50 [25] was 1.6 µM, the TGI [25] was 3.06 µM and the GI50 [26] was 1.6 µM. It also gave a TGI [26] of 3.19 µM, a GI50 [27] of 1.84 µM and a TGI [27] of 4.1 µM. The GI50 [28] was 2.97 µM, the TGI [28] was 8.75 µM and the GI50 [29] was 2.23 µM. The TGI [29] was 11.6 µM.

Source: PubChem BioAssay (NCI)
